Measurements reported in ChEMBL document CHEMBL1124768 (1990).

Assays:
Type in all cases: functional
Rattus norvegicus [1] = assay: Inhibition of carrageenan-induced 4 hours after 50 mg/kg i.p. administration in rats.; details: ip, route intraperitoneal
Rattus norvegicus [2] = assay: Inhibitory activity was measured on carrageenan-induced paw edema at a dose of 25 mg/Kg at 4 hours after intraperitoneal administration in rats; details: ip
Rattus norvegicus [3] = assay: Inhibitory activity was measured on carrageenan-induced paw edema at a dose of 100 mg/Kg at 4 hours after intraperitoneal administration in rats; details: ip

Compound | inhibition in vivo at 50 mg/kg (Rattus norvegicus [1]) | inhibition in vivo at 25 mg/kg (Rattus norvegicus [2]) | inhibition in vivo at 100 mg/kg (Rattus norvegicus [3])
O=C(O)CCO/N=C\c1ccccc1 | 0% | – | –
O=C(O)CCON=C(c1ccccc1)c1ccccc1 | 11% | – | –
O=C(O)CCO/N=C1/CC2CCC1C2 (stereo not drawn) | 16% | – | –
CC/C(=N\OCCC(=O)O)c1ccccc1 | 28% | 19% | 20%
O=C(O)CCO/N=C/c1ccco1 | 15% | – | –
O=C(O)CCON=C1c2ccccc2-c2ccccc21 | 0% | – | –
O=C(O)CCO/N=C/C1CCCCC1 | 0% | – | –
O=C(O)CCON=C1C2CC3CC(C2)CC1C3 | 19% | – | –
CCC(/C=N/OCCC(=O)O)CC | 0% | – | –
O=C(O)Cc1ccccc1Nc1c(Cl)cccc1Cl [DICLOFENAC] | 67% | 31% | –
O=C(O)CCO/N=C/c1cccs1 | 0% | – | –
CC(C)=NOCCC(=O)O | 21% | – | 35%
C/C(=N\OCCC(=O)O)C1CC1 | 16% | – | –
CC/C(=N\OCCC(=O)O)C(C)C | 35% | 21% | < 27%
C/C(=N\OCCC(=O)O)C1CCCCC1 | 0% | – | –
CCCC(CCC)=NOCCC(=O)O | 0% | – | –
C/C(=N\OCCC(=O)O)c1ccccc1 | 40% | 23% | 31%
O=C(O)CCO/N=C/c1ccccc1 | 66% | 15% | –
CC(C)C(=NOCCC(=O)O)C(C)C | 12% | – | –
